# Source: patent US20070244076A1, “Site and Rate Selective Prodrug Formulations of D609 with Antioxidant and Anticancer Activity” (priority 2003, published 2007)
# Counter-ions that a name gives are not always drawn. Numbered stars: 1 amine (or outer) side, 2 acyl side, 3 side chain; on linkers, the order of the positions; unused ones are H or OH. Bridge positions count the residues as written; N and C are the ends. Square brackets hold non-standard residues; d marks the D form. Peptide text beside a SMILES is read from it. I, II: the chains in the order shown. Actinocin(9to1) = Cc1c2oc3c(C)ccc(C(=O)[*:1])c3nc-2c(C(=O)[*:2])c(N)c1=O; NMeV = CN[C@H](C(=O)O)C(C)C; Sar = CNCC(=O)O
# Legend:
# [1] = cited from earlier work
# [2] = test system: Porcine liver esterase (PLE); assay: Esterase-catalyzed hydrolysis of D609 prodrugs; type: in vitro ADME; settings: for T1/2 / kobs: 300 μM, 0.1 unit/ml PLE, 37° C., pH 7.4
# Protocol: FIG. 18A, FIG. 18B, FIG. 18C: Esterase-catalyzed hydrolysis of D609 prodrugs. Prodrugs (300 μM in 15% DMSO/PBS, pH 7.4), 1 (FIG. 18A), 2 (FIG. 18B) and 3 (FIG. 18C), were incubated at 37° C. in the presence of 0.1 unit/ml PLE. […] The data are presented as the mean±SEM of three independent assays.
# To determine the hydrolytic property of D609 prodrugs 1, 2, and 3 (300 μM in 15% DMSO/PBS, pH7.4), these prodrugs were incubated with 0.1 unit/ml PLE at 37° C. After various times during incubation, the rate of hydrolysis of these D609 prodrugs was monitored by HPLC analysis. […] The concentration of D609 (μM) was calculated based on a linear D609-DTNB standard curve. The pseudo-first-order plots for the hydrolysis of these prodrugs were constructed from the logarithm of remaining ester versus time (FIG. 18). The end points of the reaction (150 min) were defined as when the hydrolysis of these prodrugs was over 99% complete and the release of D609 reached plateau. The pseudo-first-order rate constant (Kobs) and T1/2 (=0.693/Kobs) were calculated based on the slope of the linear portion of the curve for each of these prodrugs and are presented in Table 1 (Gilmer et al., 2002).
# [3] = cited from earlier work; remark: listed apart in the source
# [4] = previously untreated chronic myelogenous leukemia; cited from earlier work
# U937 cells = assay: U937 apoptosis, Annexin V-FITC staining and flow cytometry; type: cell-based, Human; settings: for induction of apoptosis: 24 hr, low dose of H7 (25 μM) or ceramide (5 μM)
# Protocol: It is well known that ceramide functions as a negative cell regulator that can induce cell cycle arrest, senescence or apoptosis. In contrast, DAG stimulates cell proliferation and promotes cell survival, primarily via activation of PKC. To determine if the changes in the levels of ceramide and DAG resulting from SMS inhibition contribute to D609-induced apoptosis in U937 cells, the cells were incubated with vehicle, H7 (a PKC inhibitor), ceramide, or H7 plus ceramide. U937 cells (1×10^6/ml) were incubated with 5 μM C6-ceramide and 25 μM H7 alone or combination for 24 hr at 37° C. Apoptosis of the cells was measured by Annexin V-FITC staining and flow cyotmetry and expressed as percent of Annexin V positive cells. a, p<0.05 vs Control; b, p<0.05 vs H7- or C6-treated cells (FIG. 11).
# In these experiments, U937 cells were pre-incubated with PMA (25 nM) for 30 min. and then were cultured with vehicle or D609 (150 μM) for 24 hrs.
# [5] = target: phospholipase C (Type XI from B. cereus) (Bacillus cereus, UniProt P09598); type: biochemical; settings: 2 hrs at 37° C., pNPP 40 mM
# Protocol: (§1) In this study, p-nitrophenyl-phosphorylcholine (pNPP, 40 mM) was incubated with 2 U/ml phospholipase C (Type XI from B. cereus) in the presence or absence of various concentrations of inhibitors for 2 hrs at 37° C. The amount of the cleaved substrate pNPP was quantified by determination of the optical density at 410 nm using an ELISA reader. The results are expressed as percent of vehicle control and presented as means±SEM (n=3) (FIG. 9A). NBD-C6-ceramide and PC were incubated with U937 cell lysates containing 50 μg protein in the presence or absence of various concentrations of inhibitors for 30 min at 30° C. The formation of NBD-C6-sphingomyelin as analyzed by TLC and quantified by determination of the fluorescent intensity of NBD-C6-sphingomyelin using a phosphorimager. The results are expressed as percent of vehicle control (FIG. 9B). U937 cells were incubated with different concentrations of inhibitors for 48 hours.
# [6] = test system: sphingomyelin synthase (SMS); assay: SMS activity in U937 cell lysates with inhibitor added (cell lysate-based in vitro assay); type: biochemical, Human; settings: 30 min at 30° C.
# Protocol: as §1
# [7] = Chevion et al., 1997; cited from earlier work
# alkaline phosphatase = settings: 222 μM, 3.125 U/ml, pH 9.0, 37° C.
# Chain of phospholipase C (Type XI from B. cereus) (P09598 39-283 limits assumed): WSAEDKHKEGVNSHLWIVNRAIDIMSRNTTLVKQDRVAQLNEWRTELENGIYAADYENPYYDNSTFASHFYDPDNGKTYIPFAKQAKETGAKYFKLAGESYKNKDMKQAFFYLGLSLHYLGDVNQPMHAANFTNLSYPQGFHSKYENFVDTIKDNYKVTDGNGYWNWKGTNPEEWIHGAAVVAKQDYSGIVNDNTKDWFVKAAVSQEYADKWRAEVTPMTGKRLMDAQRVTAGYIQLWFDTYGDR
smiles,measurement,setting,value
CC[C@]1(O)C[C@H]2CN(CCc3c([nH]c4ccccc34)[C@@](C(=O)OC)(c3cc4c(cc3OC)N(C=O)[C@H]3[C@@](O)(C(=O)OC)[C@H](OC(C)=O)[C@]5(CC)C=CCN6CC[C@]43[C@@H]65)C2)C1 [Vincristine],oral absorption,[1]; in vivo,Unpredictable absorption
same,terminal half-life,[1]; plasma,about 24 hours
"COc1cccc2c1C(=O)c1c(O)c3c(c(O)c1C2=O)C[C@@](O)(C(=O)CO)C[C@@H]3O[C@H]1C[C@H](N)[C@H](O)[C@H](C)O1 [Doxorubicin, 5,12-Naphthacenedione, (8s-cis)-10-[(3-amino-2,3,6-trideoxy-α-L-lyxo-hexopyranosyl)oxy]-7,8,9,10-tetrahydro-6,8,11-trihydroxy-8-(hydroxyacetyl)-1-methoxy-hydrochloride]",oral absorption,[1]; in vivo,absorbed poorly
same,half-life (elimination),[1]; in vivo,about 30 hr
"CC(=O)OCSC(=S)OC1CC2CC1C1CCCC21 (stereo not shown) [Prodrug 1, S-methyleneoxyacetyl D609]",T1/2,[2],3.34 min
same,kobs,[2],0.2074 min⁻¹
CO[C@@]12[C@H](COC(N)=O)C3=C(C(=O)C(C)=C(N)C3=O)N1C[C@@H]1N[C@@H]12 [Mitomycin],time required to reduce the serum concentration by 50%,[3]; 30 mg. bolus injection,17 min
same,dose excreted unchanged in the urine,[3]; in vivo,Approximately 10%
"CS(=O)(=O)OCCCCOS(C)(=O)=O [Busulfan, 1,4-butanediol dimethanesulfonate]",adults obtaining hematologic remission,[4],Approximately 90%
"O=NN(CCCl)C(=O)NC1CCCCC1 [Lomustine, 1-(2-chloro-ethyl)-3-cyclohexyl-1 nitrosourea]",radioactivity excreted as degradation products,"[1]; oral, 30 mg/m^2 to 100 mg/m^2, within 24 hours",about half
CC[C@]1(O)C[C@@H]2CN(CCc3c([nH]c4ccccc34)[C@@](C(=O)OC)(c3cc4c(cc3OC)N(C)[C@H]3[C@@](O)(C(=O)OC)[C@H](OC(C)=O)[C@]5(CC)C=CCN6CC[C@]43[C@@H]65)C2)C1 [Vinblastine],oral absorption,[1]; in vivo,Unpredictable absorption
same,excreted intact into the urine,[1]; in vivo,Approximately 15%
same,recovered in the feces after biliary excretion,[1]; in vivo,about 10%
same,plasma half-life after distribution (first),[1]; intravenous injection,approximately 1 hours
same,plasma half-life after distribution (second),[1]; intravenous injection,~72000 s
same,peak concentration in plasma,[1]; usual clinical doses,approximately 0.4 mM
"O=C(O)CCCc1ccc(N(CCCl)CCCl)cc1 [Chlorambucil, 4-[bis(2-chlorethyl)amino] benzenebutanoic acid]",oral absorption,[1]; in vivo,rapidly and completely absorbed from the gastrointestinal tract
COc1cccc2c1C(=O)c1c(O)c3c(c(O)c1C2=O)C[C@@](O)([C@H](C)O)C[C@@H]3O[C@H]1C[C@H](N)[C@H](O)[C@H](C)O1 [daunorubicinol],half-life (elimination),[1]; in vivo,about 27 hr
N.N.[Cl][Pt][Cl] [Cisplatin],oral absorption,[1]; in vivo,not absorbed orally
CCCCCCCCCCCCCC(=O)O[C@@H]1[C@@H](C)[C@@]2(O)[C@@H](C=C(CO)C[C@]3(O)C(=O)C(C)=C[C@@H]23)[C@@H]2C(C)(C)[C@]12OC(C)=O [PMA],effect on D609-induced apoptosis,"U937 cells; PMA 25 nM 30 min before D609 150 μM, 24 hrs",partially attenuated D609-induced apoptosis
CC1CNCCN1S(=O)(=O)c1cccc2cnccc12 (stereo not shown) [Prodrug H7],induction of apoptosis,U937 cells,modest
S=C(S)OC1CCCCC1 [cyclohexyl xanthate],inhibition of PC-PLC activity,[5],dose-dependently inhibited
same,inhibition of SMS activity,[6],had no effect
O=C1O[C@H]([C@@H](O)CO)C(O)=C1O [vitamin C],E1/2,[7],380 mV
CCCCCCCCCCCCCC=CC(O)C(CO)NC(=O)CCCCC (stereo not shown) [ceramide],induction of apoptosis,U937 cells,modest
OC1CC2CC1C1CCCC21 (stereo not shown) [Tricyclodecanol],inhibition of PC-PLC activity,[5],devoid of any of these activities
same,inhibition of SMS activity,[6],devoid of any of these activities
"COc1cccc2c1C(=O)c1c(O)c3c(c(O)c1C2=O)C[C@@](O)(C(C)=O)C[C@@H]3O[C@H]1C[C@H](N)[C@H](O)[C@H](C)O1 [Daunorubicin, 5,12-Naphthacenedione, (8S-cis)-8-acetyl-10-[(3-amino-2,3,6-trideoxy-a-L-lyxo-hexanopyranosyl)oxy]-7,8,9,10-tetrahydro-6,8,11 trihydroxy-10-methoxy-, hydrochloride]",oral absorption,[1]; in vivo,Oral absorption is poor
same,half-life (elimination),[1]; in vivo,about 19 hr
"CC(C)(C)OP(=O)(OCSC(=S)OC1CC2CC1C1CCCC21)OC(C)(C)C (stereo not drawn) [compound 7, S-(methylenoxy)-D609, di(t-butoxy)phosphoryl]",time to complete hydrolysis,alkaline phosphatase,≤ 60 min
"CC(C)(C)C(=O)OCSC(=S)OC1CC2CC1C1CCCC21 (stereo not shown) [Prodrug 3, S-methyleneoxypivalyl D609]",T1/2,[2],23.22 min
same,kobs,[2],0.02984 min⁻¹
same,% D609 (molar recovery of D609),[2]; complete hydrolysis by esterase,60%
"Cc1c2oc3c(C)ccc(C(=O)N[C@@H]4C(=O)N[C@H](C(C)C)C(=O)N5CCC[C@H]5C(=O)N(C)CC(=O)N(C)[C@@H](C(C)C)C(=O)O[C@@H]4C)c3nc-2c(C(=O)N[C@@H]2C(=O)N[C@H](C(C)C)C(=O)N3CCC[C@H]3C(=O)N(C)CC(=O)N(C)[C@@H](C(C)C)C(=O)O[C@@H]2C)c(N)c1=O [Actinomycin D] (I: T[dV]P[Sar][NMeV] / II: T[dV]P[Sar][NMeV]; ester I:1-I:C, II:1-II:C; linker I:N-II:N via Actinocin(9to1))",excreted intact into the bile,[1]; in vivo,Half of the dose
same,excreted intact into the urine,[1]; in vivo,10%
same,half-life (elimination),[1]; in vivo,about 36 hr
same,passage of the blood-brain barrier,[1]; in vivo,does not pass the blood-brain barrier
